Results taken from PMC9762331 (Cancer Discovery, 2021).
Entries after “also recorded” stand apart in the source; their conditions may differ.

Key:
[1] = test system: SW48 isogenic PIK3CA-mutant and parental WT cells; assay: Potency comparison in SW48 isogenic mutant versus WT cells; format: cell-based, human; conditions: for potency differential in mutant versus WT isogenic SW48 cells: viability EC50, mutant versus WT
[2] = test system: primary human hepatocytes; assay: Cytotoxicity in primary human hepatocytes; format: cell-based; conditions: tested up to 100 μmol/L
[3] = test system: HER2-positive PIK3CA-mutant breast tumor lines (n = 6); assay: ATP cell viability, HER2-positive PIK3CA-mutant breast lines; format: cell-based; conditions: HER2 amplified PIK3CA-mutant cell lines, 5 days
[4] = biological target: membrane-associated p110a in p110a-mutant HCC1954 xenograft model (Homo sapiens, UniProt P42336, H1047R); assay: Membrane-associated p110a in HCC1954 xenograft tumors; format: in vivo, mouse
Sequence of membrane-associated p110a in p110a-mutant HCC1954 xenograft model (P42336 whole entry H1047R): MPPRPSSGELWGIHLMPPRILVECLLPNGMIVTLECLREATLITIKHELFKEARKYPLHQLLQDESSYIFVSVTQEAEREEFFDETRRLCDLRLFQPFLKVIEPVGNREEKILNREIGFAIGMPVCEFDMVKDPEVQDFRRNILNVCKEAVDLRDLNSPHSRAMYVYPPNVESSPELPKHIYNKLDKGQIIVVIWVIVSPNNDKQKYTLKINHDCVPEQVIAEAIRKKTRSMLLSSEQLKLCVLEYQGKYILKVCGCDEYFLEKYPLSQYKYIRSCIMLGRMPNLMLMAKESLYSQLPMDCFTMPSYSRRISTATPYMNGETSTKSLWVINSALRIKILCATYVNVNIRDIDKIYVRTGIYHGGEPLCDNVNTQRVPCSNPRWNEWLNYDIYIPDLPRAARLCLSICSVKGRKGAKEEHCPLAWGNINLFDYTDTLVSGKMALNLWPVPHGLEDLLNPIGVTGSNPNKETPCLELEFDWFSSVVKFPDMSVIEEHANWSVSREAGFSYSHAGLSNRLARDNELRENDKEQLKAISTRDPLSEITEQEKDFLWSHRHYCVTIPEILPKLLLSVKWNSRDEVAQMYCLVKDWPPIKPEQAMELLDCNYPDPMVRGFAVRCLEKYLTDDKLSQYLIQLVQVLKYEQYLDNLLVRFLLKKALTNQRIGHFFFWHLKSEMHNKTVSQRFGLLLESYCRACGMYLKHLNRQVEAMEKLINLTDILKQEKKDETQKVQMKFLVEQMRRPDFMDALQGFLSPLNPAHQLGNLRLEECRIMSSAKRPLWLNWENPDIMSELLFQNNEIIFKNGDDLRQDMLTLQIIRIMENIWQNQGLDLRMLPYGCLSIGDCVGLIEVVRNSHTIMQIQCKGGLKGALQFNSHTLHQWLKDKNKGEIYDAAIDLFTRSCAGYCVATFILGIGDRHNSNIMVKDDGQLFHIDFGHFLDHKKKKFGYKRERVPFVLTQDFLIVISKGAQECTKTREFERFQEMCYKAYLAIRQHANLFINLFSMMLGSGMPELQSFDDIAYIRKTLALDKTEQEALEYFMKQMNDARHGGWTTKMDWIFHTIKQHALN

[5] = test system: HCC1954, KPL-4, and HCI-003 PDX; assay: Efficacy in PIK3CA-mutant xenograft and PDX models; format: in vivo, mouse; conditions: HCC1954, KPL-4, HCI-003 PDX; dosed orally and daily
[6] = letrozole ± palbociclib portion of the study; cited from earlier work
[7] = biological target: H1047R mutant p110a in HCC1954 parental cells (Homo sapiens, UniProt P42336, H1047R); conditions: 24 hours, 500 nmol/L, P = 0.00016
Sequence of H1047R mutant p110a in HCC1954 parental cells (P42336 whole entry H1047R): as above
Sequence of H1047R mutant p110a in HCC1954 parental cells (O00459 whole entry partner): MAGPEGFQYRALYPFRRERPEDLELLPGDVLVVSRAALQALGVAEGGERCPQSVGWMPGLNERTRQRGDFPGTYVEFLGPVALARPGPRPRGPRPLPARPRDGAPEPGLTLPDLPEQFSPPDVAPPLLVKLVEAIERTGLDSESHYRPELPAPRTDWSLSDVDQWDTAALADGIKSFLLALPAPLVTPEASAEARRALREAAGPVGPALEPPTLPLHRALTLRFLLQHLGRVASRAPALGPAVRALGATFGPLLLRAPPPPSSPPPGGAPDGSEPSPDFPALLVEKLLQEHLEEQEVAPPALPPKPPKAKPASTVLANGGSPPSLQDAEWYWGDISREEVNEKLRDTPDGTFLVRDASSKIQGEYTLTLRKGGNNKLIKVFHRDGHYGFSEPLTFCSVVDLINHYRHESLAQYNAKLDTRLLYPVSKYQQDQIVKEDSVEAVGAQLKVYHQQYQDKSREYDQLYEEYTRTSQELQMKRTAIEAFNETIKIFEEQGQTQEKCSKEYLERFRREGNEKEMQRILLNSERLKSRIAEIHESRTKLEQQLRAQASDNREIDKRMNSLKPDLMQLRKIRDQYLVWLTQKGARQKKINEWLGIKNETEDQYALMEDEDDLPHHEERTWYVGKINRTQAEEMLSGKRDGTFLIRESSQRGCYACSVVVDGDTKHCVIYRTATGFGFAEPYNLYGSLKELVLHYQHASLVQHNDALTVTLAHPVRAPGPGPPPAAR

[8] = test system: p110a in PIK3CA-mutant breast cancer lines; conditions: treatment for 24 hours
[9] = test system: pAKT in HER2-amplified PIK3CA-mutant cells (HCC1954, HCC202, MDA-MB-453); assay: pAKT Western blot time course; format: cell-based; conditions: 0.5 μmol/L GDC-0077 or 1 μmol/L BYL719
[10] = test system: PIK3CA E545K-mutant MCF7 cells; assay: CyQuant growth rate inhibition; format: cell-based; conditions: all combination treatments (± E2, ± 0.15 μmol/L palbociclib)
[11] = test system: HER2-negative PIK3CA-mutant breast tumor lines (n = 10); assay: ATP cell viability, HER2-negative PIK3CA-mutant breast lines; format: cell-based; conditions: 5 days
[12] = biological target: p110a protein in PIK3CA H1047R-mutant HCC1954 cells (Homo sapiens, UniProt P42336, H1047R); assay: p110a Western blot, HCC1954 cells; format: cell-based; conditions: treatment up to 8 hours
Sequence of p110a protein in PIK3CA H1047R-mutant HCC1954 cells (P42336 whole entry H1047R): as the sequence (P42336 whole entry H1047R) above

[13] = biological target: p110a in PIK3CA-WT HDQ-P1 cells (Homo sapiens, UniProt P42336); conditions: Western blot, 8 hours
Sequence of p110a in PIK3CA-WT HDQ-P1 cells (P42336 whole entry): as the sequence (P42336 whole entry H1047R) above, with R1047H counted along it
Sequence of p110a in PIK3CA-WT HDQ-P1 cells (P27986 whole entry partner): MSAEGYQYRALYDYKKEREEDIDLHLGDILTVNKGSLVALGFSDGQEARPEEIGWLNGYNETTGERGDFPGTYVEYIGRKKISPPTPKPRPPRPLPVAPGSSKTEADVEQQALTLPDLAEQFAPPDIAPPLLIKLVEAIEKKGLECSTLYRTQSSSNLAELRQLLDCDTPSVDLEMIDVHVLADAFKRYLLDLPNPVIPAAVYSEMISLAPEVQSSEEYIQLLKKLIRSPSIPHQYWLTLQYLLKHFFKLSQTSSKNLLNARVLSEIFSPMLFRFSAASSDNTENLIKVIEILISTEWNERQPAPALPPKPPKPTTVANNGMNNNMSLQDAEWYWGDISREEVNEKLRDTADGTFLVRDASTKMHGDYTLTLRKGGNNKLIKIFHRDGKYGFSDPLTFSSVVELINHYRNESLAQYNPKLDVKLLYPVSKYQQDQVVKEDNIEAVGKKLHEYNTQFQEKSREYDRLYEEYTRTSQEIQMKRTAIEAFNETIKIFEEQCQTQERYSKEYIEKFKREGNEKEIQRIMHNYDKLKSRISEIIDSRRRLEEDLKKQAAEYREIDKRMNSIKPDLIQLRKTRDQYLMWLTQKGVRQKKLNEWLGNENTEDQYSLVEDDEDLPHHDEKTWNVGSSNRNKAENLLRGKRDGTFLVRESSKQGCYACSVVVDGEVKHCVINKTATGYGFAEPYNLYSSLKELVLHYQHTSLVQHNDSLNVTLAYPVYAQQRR

## CC(C)n1ncnc1-c1cn2c(n1)-c1ccc(O[C@@H](C)C(N)=O)cc1OCC2 [GNE-326, (S)-2-((2-(1-Isopropyl-1H-1,2,4-triazol-5-yl)-5,6-dihydrobenzo[f]imidazo[1,2-d][1,4]oxazepin-9-yl)oxy)propanamide]
[1]
  potency differential in mutant versus WT isogenic SW48 cells: not have a potency differential

## Cc1nc(NC(=O)N2CCC[C@H]2C(N)=O)sc1-c1ccnc(C(C)(C)C(F)(F)F)c1 [Alpelisib, reference compound]
[1]
  potency differential in mutant versus WT isogenic SW48 cells: not have a potency differential
[2]
  cytotoxic effects in primary human hepatocytes: no cytotoxic effects

## CS(=O)(=O)N1CCN(Cc2cc3nc(-c4cccc5[nH]ncc45)nc(N4CCOCC4)c3s2)CC1 [Pictilisib, 2-(1H-indazol-4-yl)-6-(4-methanesulfonyl-piperazin-1-ylmethyl)-4-morpholin-4-yl-thieno[3,2-d]pyrimidine]
[1]
  potency differential in mutant versus WT isogenic SW48 cells: comparable EC50

## C[C@H](Nc1ccc2c(c1)OCCn1cc(N3C(=O)OC[C@H]3C(F)F)nc1-2)C(N)=O [GDC-0077]
[3]
  fold difference between the mean IC50 values, GDC-0077 versus BYL719: ~20 fold
[4]; single oral dose of 50 mg/kg
  p110a protein expression in HCC1954 xenograft tumors: depleted p110a protein expression for up to 8 hours
[5]
  tumor response at the MTD in PIK3CA-mutant xenograft and PDX models: tumor regressions
[6]
  drug–drug interactions: No drug–drug interactions were observed
[7]
  mutant-specific (H1047R) p110a peptide by mass spectrometry: loss of the mutant-specific peptide
[8]
  p110a degradation at clinically relevant concentrations: resulted in p110a degradation
[9]
  pAKT / pathway inhibition over the 24-hour treatment time: sustained inhibition of pAKT; also recorded: sustained pathway inhibition
[10]
  GDC-0077 concentrations giving negative GR values (cytotoxic response): ≥ 0.12 µmol/L
[2]
  cytotoxic effects in primary human hepatocytes: no cytotoxic effects
[11]
  fold difference between the mean IC50 values, GDC-0077 versus BYL719: ~6 fold

## Cc1nc(-c2cn3c(n2)-c2ccc(-c4cnn(C(C)(C)C(N)=O)c4)cc2OCC3)n(C(C)C)n1 [Taselisib]
[4]; 4 hours after a single oral dose of 15 mg/kg
  membrane-associated p110a in HCC1954 xenograft tumors: depleted
[1]; H1047R or E545K knock-in versus parental
  potency (EC50) increase in PIK3CA-mutant cells versus parental WT SW48 cells: 3 fold
[12]
  p110a protein level in HCC1954 cells: dose-dependent depletion of p110a protein
[7]
  mutant-specific (H1047R) p110a peptide by mass spectrometry: loss of the mutant-specific peptide
[8]
  p110a degradation at clinically relevant concentrations: resulted in p110a degradation
[13]
  p110a protein level in HDQ-P1 cells: No significant change
[2]
  cytotoxic effects in primary human hepatocytes: no cytotoxic effects
